Test results: PMC10842878 (Peptides, 2023)
“Also recorded” adds a separate entry of the source.

Tests used:
[1] = H2O; cited from earlier work
[2] = type: physicochemical; conditions: 150 μM peptide, 50 mM sodium phosphate buffer pH 7, 37°C, 2 weeks

C/C1=C2/[N-]C([C@H](CC(N)=O)[C@@]2(C)CCC(=O)NCC(C)O)[C@]2(C)N=C(/C(C)=C3N=C(/C=C4N=C1[C@@H](CCC(N)=O)C\4(C)C)[C@@H](CCC(N)=O)[C@]\3(C)CC(N)=O)[C@@H](CCC(N)=O)[C@]2(C)CC(N)=O.[C-]#N.[C-]#N.[Co] (some centres unmarked) [Cbi, dicyanocobinamide]
Water solubility [1]: 400 mg/mL

HSQGTFTSDYSKYLDSrRAQDFVQWLMNTZ [compound 7]
Chemical stability (% of original concentration retained in solution) [2]: highest chemical stability; also recorded: highest % concentration retained
